This note sets out measurements from patent US20160102073A1, “2-HYDROXYMETHYL-SUBSTITUTED OREXIN RECEPTOR ANTAGONISTS” (MERCK SHARP & DOHME CORP., priority 2013, published 2016).

Experiment [1] has as its target T1, human orexin-2 receptor (hOX2R) (Homo sapiens, UniProt O43614).
T1 construct: expressed in transfected cells; host or cells: Chinese hamster ovary (CHO) cells, grown under G418 selection
T1 sequence (O43614 1-444): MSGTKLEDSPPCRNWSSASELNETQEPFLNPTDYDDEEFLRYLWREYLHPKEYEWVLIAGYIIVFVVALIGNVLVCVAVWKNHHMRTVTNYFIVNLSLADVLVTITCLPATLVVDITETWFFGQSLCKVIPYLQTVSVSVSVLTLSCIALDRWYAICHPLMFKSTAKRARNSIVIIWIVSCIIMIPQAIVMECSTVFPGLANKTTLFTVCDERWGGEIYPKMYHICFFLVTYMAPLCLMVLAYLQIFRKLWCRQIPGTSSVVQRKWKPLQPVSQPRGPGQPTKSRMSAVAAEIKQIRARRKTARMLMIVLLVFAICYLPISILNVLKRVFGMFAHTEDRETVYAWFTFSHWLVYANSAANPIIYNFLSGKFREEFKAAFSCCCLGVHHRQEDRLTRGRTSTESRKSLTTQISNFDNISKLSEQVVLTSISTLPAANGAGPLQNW
Nature of the experiment: FLIPR Ca2+ Flux Assay, CHO cells expressing hOX2R. The format is cell-based. The note with it: agonist 70 pM Ala-6,12 orexin-A. As for the experimental part: The utility of the compounds in accordance with the present invention as orexin receptor OX1R and/or OX2R antagonists may be readily determined without undue experimentation by methodology well known in the art, including the “FLIPR Ca^2+ Flux Assay” (Okumura et al., Biochem. Biophys. Res. Comm. 280:976-981, 2001). In a typical experiment the OX1 and OX2 receptor antagonistic activity of the compounds of the present invention was determined in accordance with the following experimental method. For intracellular calcium measurements, Chinese hamster ovary (CHO) cells expressing the rat orexin-1 receptor or the human orexin-2 receptor, are grown in Iscove's modified DMEM containing 2 mM L-glutamine, […], 1% hypoxanthine-thymidine supplement, 100 U/ml penicillin, 100 μg/ml streptomycin and 10% heat-inactivated fetal calf serum (FCS). The cells are seeded at 20,000 cells/well into Becton-Dickinson black 384-well clear bottom sterile plates coated with poly-D-lysine. All reagents were from GIBCO-Invitrogen Corp. The seeded plates are incubated overnight at 37° C. and 5% CO2. Ala-6,12 human orexin-A as the agonist is prepared as a 1 mM stock solution in 1% bovine serum albumin (BSA) and diluted in assay buffer (HBSS containing 20 mM HEPES, 0.1% BSA and 2.5 mM probenecid, pH7.4) for use in the assay at a final concentration of 70 pM. Test compounds are prepared as 10 mM stock solution in DMSO, then diluted in 384-well plates, first in DMSO, then assay buffer. On the day of the assay, cells are washed 3 times with 100 μl assay buffer and then incubated for 60 min (37° C., 5% CO2) in 60 μl assay buffer containing 1 μM Fluo-4AM ester, 0.02% pluronic acid, and 1% BSA. The dye loading solution is then aspirated and cells are washed 3 times with 100 μl assay buffer. 30 μl of that same buffer is left in each well. Within the Fluorescent Imaging Plate Reader (FLIPR, Molecular Devices), test compounds are added to the plate in a volume of 25 μl, incubated for 5 min and finally 25 μl of agonist is added. Fluorescence is measured for each well at 1 second intervals for 5 minutes and the height of each fluorescence peak is compared to the height of the fluorescence peak induced by 70 pM Ala-6,12 orexin-A with buffer in place of antagonist. For each antagonist, IC50 value (the concentration of compound needed to inhibit 50% of the agonist response) is determined. Alternatively, compound potency can be assessed by a radioligand binding assay (described in Bergman et. al. Bioorg. Med. Chem. Lett. 2008, 18, 1425-1430) in which the inhibition constant (Ki) is determined in membranes prepared from CHO cells expressing either the OX1 or OX2 receptor. The intrinsic orexin receptor antagonist activity of a compound which may be used in the present invention may be determined by these assays.
Chinese hamster ovary (CHO) cells expressing the human orexin-1 receptor (hOX1R) or the human orexin-2 receptor (hOX2R) were grown in Iscove's modified DMEM containing 2 mM L-glutamine, […], 1% hypoxanthine-thymidine supplement, 100 U/ml penicillin, 100 μg/ml streptomycin and 10% heat-inactivated fetal calf serum (FCS). The cells were seeded at 20,000 cells/well into Becton-Dickinson black 384-well clear bottom sterile plates coated with poly-D-lysine. All reagents were from GIBCO-Invitrogen Corp. The seeded plates were incubated overnight at 37° C. and 5% CO2. Ala-6,12 human orexin-A, used as the agonist, was prepared as a 1 mM stock solution in 1% bovine serum albumin (BSA) and diluted in assay buffer (HBSS containing 20 mM HEPES, 0.1% BSA and 2.5 mM probenecid, pH7.4) for use in the assay at a final concentration of 70 pM. Test compounds were prepared as 10 mM stock solution in DMSO, then diluted in 384-well plates, first in DMSO, then assay buffer. […]

The target in experiment [2] is T2, human orexin-1 receptor (hOX1R) (Homo sapiens, UniProt O43613).
T2 construct: expressed in transfected cells; host or cells: Chinese hamster ovary (CHO) cells, grown under G418 selection
T2 sequence (O43613 1-425): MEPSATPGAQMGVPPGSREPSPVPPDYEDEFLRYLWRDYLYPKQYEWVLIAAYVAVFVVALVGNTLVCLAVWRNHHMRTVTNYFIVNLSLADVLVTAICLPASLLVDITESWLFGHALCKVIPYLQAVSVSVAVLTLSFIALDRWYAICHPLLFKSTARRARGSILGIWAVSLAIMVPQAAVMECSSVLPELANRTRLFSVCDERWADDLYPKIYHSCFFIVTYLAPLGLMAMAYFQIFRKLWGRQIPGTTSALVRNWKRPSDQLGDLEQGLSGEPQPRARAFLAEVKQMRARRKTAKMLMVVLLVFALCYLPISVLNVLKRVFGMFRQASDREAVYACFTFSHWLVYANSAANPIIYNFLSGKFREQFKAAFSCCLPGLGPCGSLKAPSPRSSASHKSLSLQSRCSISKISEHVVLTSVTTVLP
Nature of the experiment: FLIPR Ca2+ Flux Assay, CHO cells expressing hOX1R. The format is cell-based. The note with it: agonist 70 pM Ala-6,12 orexin-A. As to the method: Chinese hamster ovary (CHO) cells expressing the human orexin-1 receptor (hOX1R) or the human orexin-2 receptor (hOX2R) were grown in Iscove's modified DMEM containing 2 mM L-glutamine, […], 1% hypoxanthine-thymidine supplement, 100 U/ml penicillin, 100 μg/ml streptomycin and 10% heat-inactivated fetal calf serum (FCS). The cells were seeded at 20,000 cells/well into Becton-Dickinson black 384-well clear bottom sterile plates coated with poly-D-lysine. All reagents were from GIBCO-Invitrogen Corp. The seeded plates were incubated overnight at 37° C. and 5% CO2. Ala-6,12 human orexin-A, used as the agonist, was prepared as a 1 mM stock solution in 1% bovine serum albumin (BSA) and diluted in assay buffer (HBSS containing 20 mM HEPES, 0.1% BSA and 2.5 mM probenecid, pH7.4) for use in the assay at a final concentration of 70 pM. Test compounds were prepared as 10 mM stock solution in DMSO, then diluted in 384-well plates, first in DMSO, then assay buffer.
On the day of the assay, cells were washed 3× with 100 μl assay buffer and then incubated for 60 minutes (37° C., 5% CO2) in 60 μl assay buffer containing 1 μM Fluo-4AM ester, 0.02% pluronic acid, and 1% BSA. The dye loading solution was then aspirated and cells were washed 3× with 100 μl assay buffer. 30 μl of that same buffer was left in each well. Within the Fluorescent Imaging Plate Reader (FLIPR, Molecular Devices), test compounds were added to the plate in a volume of 25 μl, incubated for 5 minutes, and then 25 μl of agonist was added. Fluorescence was measured for each well at 1 second intervals for 5 minutes, and the height of each fluorescence peak was compared to the height of the fluorescence peak induced by 70 pM of Ala-6,12 orexin-A with buffer in place of test compound.

As for `COc1ccc(C(=O)N2C[C@H](Oc3ncccc3C(C)(C)O)CC[C@H]2C)c(C2CC2)c1` [Example 15, 2-[2-({(3R,6R)-1-[(2-cyclopropyl-4-methoxyphenyl)carbonyl]-6-methylpiperidin-3-yl}oxy)pyridin-3-yl]propan-2-ol], the half-maximal inhibitory concentration (IC50) in experiment [1] amounted to 148 nM; in experiment [2], 2300 nM.

As to `C[C@@H]1CC[C@@H](Oc2ncccc2C(C)(C)O)CN1C(=O)c1ccsc1-c1ncccn1` [Example 19, 2-[2-({(3R,6R)-6-Methyl-1-[(2-pyrimidin-2-ylthiophen-3-yl)carbonyl]piperidin-3-yl}oxy)pyridin-3-yl]propan-2-ol], the IC50 was 13 nM in experiment [1] and 12 nM in experiment [2].

Regarding `C[C@@H]1CC[C@@H](Oc2ncccc2C(C)(C)O)CN1C(=O)c1cc(C#N)ccc1-n1nccn1` [Example 7, 3-{[(2R,5R)-5-{[3-(1-hydroxy-1-methylethyl)pyridin-2-yl]oxy}-2-methylpiperidin-1-yl]carbonyl}-4-(2H-1,2,3-triazol-2-yl)benzonitrile], the half-inhibitory concentration (IC50) in experiment [1] was 88 nM; in experiment [2], 418 nM.

As to `C[C@@H]1CC[C@@H](Oc2ncccc2C(C)(C)O)CN1C(=O)c1ccccc1C1CCC1` [Example 9, 2-[2-({(3R,6R)-1-[(2-cyclobutylphenyl)carbonyl]-6-methylpiperidin-3-yl}oxy)pyridin-3-yl]propan-2-ol], the IC50 in experiment [1] stood at 54 nM; in experiment [2], 89 nM.

Take `Cc1ccc(C(=O)N2C[C@H](Oc3ncccc3C(C)(C)O)CC[C@H]2C)c(C2CC2)c1` [Example 16, 2-[2-({(3R,6R)-1-[(2-cyclopropyl-4-methylphenyl)carbonyl]-6-methylpiperidin-3-yl}oxy)pyridin-3-yl]propan-2-ol]: the figures for the IC50 in experiment [1] and in experiment [2] were 135 nM and 349 nM, respectively.

For `Cc1ccc(-n2nccn2)c(C(=O)N2C[C@H](Oc3ncccc3C(C)(C)O)CC[C@H]2C)c1` [Example 17, 2-(2-{[(3R,6R)-6-methyl-1-{[5-methyl-2-(2i-1,2,3-triazol-2-yl)phenyl]carbonyl}piperidin-3-yl]oxy}pyridin-3-yl)propan-2-ol], the figures for the IC50 in experiment [1] and in experiment [2] were 37 nM and 50 nM, respectively.

As to `C[C@@H]1CC[C@@H](Oc2ncccc2[C@@H](C)O)CN1C(=O)c1ccccc1-n1nccn1` [Example 29, (1R)-1-(2-{[(3R,6R)-6-Methyl-1-{[2-(2H-1,2,3-triazol-2-yl)phenyl]carbonyl}piperidin-3-yl]oxy}pyridin-3-yl)ethanol], the IC50 came out at 49 nM in experiment [1] and 1160 nM in experiment [2].

Turning to `Cc1ccc(CO)c(O[C@@H]2CC[C@@H](C)N(C(=O)c3ccccc3-n3nccn3)C2)n1` [Example 45, (6-Methyl-2-{[(3R,6R)-6-methyl-1-{[2-(2H-1,2,3-triazol-2-yl)phenyl]carbonyl}piperidin-3-yl]oxy}pyridin-3-yl)methanol], the values for the IC50 in experiment [1] and in experiment [2] were 29 nM and 95 nM, respectively.

`C[C@@H]1CC[C@@H](Oc2ncccc2C(C)(C)O)CN1C(=O)c1ccc(F)cc1C1CC1` [Example 14, 2-[2-({(3R,6R)-1-[(2-cyclopropyl-4-fluorophenyl)carbonyl]-6-methylpiperidin-3-yl}oxy)pyridin-3-yl]propan-2-ol]: the values for the IC50 in experiment [1] and in experiment [2] were 49 nM and 475 nM, respectively.

`COc1ccc(C(=O)N2C[C@H](Oc3ncccc3CO)CC[C@H]2C)c(-n2nccn2)n1` [Example 49, (2-{[(3R,6R)-1-{[6-Methoxy-2-(2H-1,2,3-triazol-2-yl)pyridin-3-yl]carbonyl}-6-methylpiperidin-3-yl]oxy}pyridin-3-yl)methanol]: the half-inhibitory concentration (IC50) was found to be 588 nM in experiment [1] and 10000 nM in experiment [2].

Turning to `C[C@@H]1CC[C@@H](Oc2ncccc2C(C)(C)O)CN1C(=O)c1cccc(F)c1-c1ncccn1` [Example 20, 2-[2-({(3R,6R)-1-[(3-fluoro-2-pyrimidin-2-yl-phenyl)carbonyl]-6-methyl-piperidin-3-yl}oxy)pyridin-3-yl]propan-2-ol], the half-inhibitory concentration (IC50) in experiment [1] was determined as 98 nM; in experiment [2], 609 nM.

As for `C[C@@H]1CC[C@@H](Oc2ncccc2C(C)(C)O)CN1C(=O)c1ccccc1-n1ncnn1` [Example 48, 2-(2-{[(3R,6R)-6-Methyl-1-{[2-(2H-tetrazol-2-yl)phenyl]carbonyl}piperidin-3-yl]oxy}pyridin-3-yl)propan-2-ol], the half-maximal inhibitory concentration (IC50) worked out at 21 nM in experiment [1] and 156 nM in experiment [2].

`C[C@@H]1CC[C@@H](Oc2ncccc2C(C)(C)O)CN1C(=O)c1cccc(F)c1-n1nccn1` [Example 3, 2-(2-{[(3R,6R)-1-{[3-fluoro-2-(2H-1,2,3-triazol-2-yl)phenyl]carbonyl}-6-methylpiperidin-3-yl]oxy}pyridin-3-yl)propan-2-ol]: the values for the IC50 in experiment [1] and in experiment [2] were 35 nM and 189 nM, respectively.

Broadly, the IC50 is the concentration needed to halve the response being measured. A lower IC50 goes with higher potency.
